Data taken from patent publication US20240108008A1, “COMPOSITIONS COMPRISING MESOSULFURON-METHYL AND TEHP” (BAYER AKTIENGESELLSCHAFT, priority 2020, published 2024).

How the values were obtained:
TRZAW, winter wheat = assay: Greenhouse selectivity trials, wheat crop injury post-emergence; format: in vivo, winter wheat (variety: Dekan); conditions: 2 kg of TEHP per hectare, in combination with mesosulfuron-methyl and/or a salt thereof
Source text: The 00 damage (injury) indicated refers to the maximum damage observed in the respective crop.

harmful plants = assay: Adjuvant effect on performance of mesosulfuron-methyl; format: in vivo; conditions: same application rate as tri(butoxyethyl) phosphate (TBEP)

CCCCC(CC)COP(=O)(OCC(CC)CCCC)OCC(CC)CCCC (centres unmarked) [TEHP, Tris(2-ethylhexyl) phosphate]
phytotoxic effects in crop plants such as wheat (TRZAW, winter wheat): significant phytotoxic effects
effects as adjuvant in comparison to TBEP (harmful plants): superior
